Starred links: 1 amine or outer side, 2 acyl side, 3 side chain; linkers in the order of their positions; H or OH if unused. Positions of bridges follow the written chain, without caps; N, C: chain ends. Non-standard residues stand in square brackets, D forms with d. Residues, ends and D or L forms follow the SMILES beside them. *: point of attachment. hTyr(3S-OH,4S-OH,3'-OSO3H) = N[C@H](C(=O)O)[C@H](O)[C@@H](O)c1ccc(O)c(OS(=O)(=O)O)c1; pTerphenylCO(4''-OnC5H11) = CCCCCOc1ccc(-c2ccc(-c3ccc(C(=O)*)cc3)cc2)cc1; Orn(4R-OH,5R-OH) = O=C([C@H](C[C@@H](O)[C@@H](O)N[*:3])N[*:1])[*:2]; hTyr(3S-OH,4S-OH) = N[C@H](C(=O)O)[C@H](O)[C@@H](O)c1ccc(O)cc1; Pro(3S-OH,4S-Me) = C[C@H]1CN[C@H](C(=O)O)[C@H]1O; X1 = CCCCCOc1ccc(-c2cc(-c3ccc(C(=O)*)cc3)no2)cc1; Gln(3R-OH) = NC(=O)C[C@@H](O)[C@H](N)C(=O)O; Hyp = O=C(O)[C@@H]1C[C@@H](O)CN1
System: C. albicans, non-albicans Candida spp. Aspergillus spp. in oral swabs from patients with oral candidiasis
Assay: Signs of fungal growth on 12 well plate test system supplemented with antifungal antibiotics
Assay type: cell-based
Conditions: naked eye examination, samples resistant to the antibiotic
Procedure: Oral swabs (n=6) from patients with confirmed oral candidiasis caused by C. albicans, non-albicans Candida spp. Aspergillus spp., were dissolved with PBS and 0.1 uL were plated on 12 well plate test system filled with Mixed Medium 1 (see above), Mixed Medium 2 (Sabouraud agar+Potato Dextrose Agar+vitamins B12+B7) (MM2), Sabouraud agar (SA), Potato Dextrose Agar (PDA), Sabouraud's Heart Infusion (SABHI) agar. 11 wells were filled with media supplemented with antibiotics (taken at mean concentration of each antibiotic achieved in lungs at different timpoints post drug administration)—Nystatin, Amphotericin B, Clotrimazole, Fluconazole, Isavuconazole, Terbinafin, Posaconazole, Voriconazole, Anidulafungin, Caspofungin, Micafungin. One well was antibiotic free.
Plates was incubated at 30 C and the analysis of the presence/absence of microbial growth was monitored every 15 minutes from […] to 5 h, then hourly from 5 h to 8 h and then at 18 and 24 h post plating with a naked eye.
Three methods (algorithms) how to analyze fungal growth were used.
Method (Algorithm) #1. Lab technician, analyzed the appearance of fungal growth by comparing the signs of fungal growth in each well supplemented with antibiotic(s) at certain timepoint, with the signs of funal growth in the same well at previous time point(s).
Method (Algorithm)#2. Lab technician analyzed the appearance of fungal growth by comparing the signs of fungal growth in each well supplemented with antibiotic(s) with fungal growth in antibiotic-free control
Method (Algorithm) #3. Lab technician analyzed the absence of fungal growth in the wells in fixed time period of 3.5 h; 5 h and 24 h.

[1] = Method (Algorithm) #1, MM1 medium
[2] = Method (Algorithm) #1, MM2 medium
[3] = Method (Algorithm) #1, PDA medium
[4] = Method (Algorithm) #1, SA (Sabouraud agar)
[5] = Method (Algorithm) #1, SABHI medium
[6] = Method (Algorithm) #2, MM1 medium
[7] = Method (Algorithm) #2, MM2 medium
[8] = Method (Algorithm) #2, PDA medium
[9] = Method (Algorithm) #2, SA (Sabouraud agar)
[10] = Method (Algorithm) #2, SABHI medium

SMILES	Mean hour at which fungal growth became visible on the wells supplemented with a certain antibiotic [1]	Mean hour at which fungal growth became visible on the wells supplemented with a certain antibiotic [2]	Mean hour at which fungal growth became visible on the wells supplemented with a certain antibiotic [3]	Mean hour at which fungal growth became visible on the wells supplemented with a certain antibiotic [4]	Mean hour at which fungal growth became visible on the wells supplemented with a certain antibiotic [5]	Mean hour at which fungal growth became visible on the wells supplemented with a certain antibiotic [6]	Mean hour at which fungal growth became visible on the wells supplemented with a certain antibiotic [7]	Mean hour at which fungal growth became visible on the wells supplemented with a certain antibiotic [8]	Mean hour at which fungal growth became visible on the wells supplemented with a certain antibiotic [9]	Mean hour at which fungal growth became visible on the wells supplemented with a certain antibiotic [10]
C[C@@H]1[C@H](O)[C@@H](C)/C=C/C=C/C=C/C=C/C=C/C=C/C=C/[C@H](O[C@@H]2O[C@H](C)[C@@H](O)[C@H](N)[C@@H]2O)C[C@@H]2O[C@](O)(C[C@@H](O)C[C@@H](O)[C@H](O)CC[C@@H](O)C[C@@H](O)CC(=O)O[C@H]1C)C[C@H](O)[C@H]2C(=O)O [Amphotericin B]	3 h	5 h	4.5 h	6.5 h	6 h	5 h	5 h	7.5 h	7 h	8 h
CCCCCOc1ccc(-c2ccc(-c3ccc(C(=O)N[C@H]4C[C@@H](O)[C@@H](O)NC(=O)[C@@H]5[C@@H](O)[C@@H](C)CN5C(=O)[C@H]([C@@H](C)O)NC(=O)[C@H]([C@H](O)[C@@H](O)c5ccc(O)cc5)NC(=O)[C@@H]5C[C@@H](O)CN5C(=O)[C@H]([C@@H](C)O)NC4=O)cc3)cc2)cc1 [Anidulafungin] ({pTerphenylCO(4''-OnC5H11)}-[Orn(4R-OH,5R-OH)]T[Hyp][hTyr(3S-OH,4S-OH)]T[Pro(3S-OH,4S-Me)]; lactam 1-C)	4 h	5 h	6.5 h	5.5 h	6.5 h	5.5 h	4.5 h	7.5 h	6.5 h	8.5 h
CC[C@H](C)C[C@H](C)CCCCCCCCC(=O)N[C@H]1C[C@@H](O)[C@@H](NCCN)NC(=O)[C@@H]2[C@@H](O)CCN2C(=O)[C@H]([C@H](O)CCN)NC(=O)[C@H]([C@H](O)[C@@H](O)c2ccc(O)cc2)NC(=O)[C@@H]2C[C@@H](O)CN2C(=O)[C@H]([C@@H](C)O)NC1=O [Caspofungin]	3.5 h	5 h	6 h	5.5 h	7 h	6 h	5.5 h	8 h	7.5 h	8.5 h
Clc1ccccc1C(c1ccccc1)(c1ccccc1)n1ccnc1 [Clotrimazole]	3.5 h	4.5 h	7.5 h	5 h	6.5 h	4.5 h	6.5 h	8.5 h	7.5 h	6.5 h
OC(Cn1cncn1)(Cn1cncn1)c1ccc(F)cc1F [Fluconazole]	4 h	4.5 h	5 h	6.5 h	7.5 h	5.5 h	5.5 h	6.5 h	7 h	8 h
C[C@@H](c1nc(-c2ccc(C#N)cc2)cs1)[C@](O)(Cn1cncn1)c1cc(F)ccc1F [Isavuconazole]	5 h	4.5 h	6 h	6.5 h	7 h	6 h	5.5 h	7.5 h	7.5 h	8.5 h
CCCCCOc1ccc(-c2cc(-c3ccc(C(=O)N[C@H]4C[C@@H](O)[C@@H](O)NC(=O)[C@@H]5[C@@H](O)[C@@H](C)CN5C(=O)[C@H]([C@H](O)CC(N)=O)NC(=O)[C@H]([C@H](O)[C@@H](O)c5ccc(O)c(OS(=O)(=O)O)c5)NC(=O)[C@@H]5C[C@@H](O)CN5C(=O)[C@H]([C@@H](C)O)NC4=O)cc3)no2)cc1 [Micafungin] (X1-[Orn(4R-OH,5R-OH)]T[Hyp][hTyr(3S-OH,4S-OH,3'-OSO3H)][Gln(3R-OH)][Pro(3S-OH,4S-Me)]; lactam 1-C)	4.5 h	5 h	6 h	6 h	5 h	4.5 h	5.5 h	7.5 h	8 h	6.5 h
C[C@@H]1[C@H](O)[C@@H](C)/C=C/C=C/CC/C=C/C=C/C=C/C=C/C(O[C@H]2O[C@H](C)[C@@H](O)[C@H](N)[C@@H]2O)CC2O[C@](O)(CC(O)C(O)CCC(O)CC(O)CC(O)CC(=O)O[C@H]1C)CC(O)C2C(=O)O (stereo partly drawn) [Nystatin]	4 h	4.5 h	5 h	6 h	5.5 h	4.5 h	6 h	6.5 h	6 h	7.5 h
CC[C@@H]([C@H](C)O)n1ncn(-c2ccc(N3CCN(c4ccc(OC[C@@H]5CO[C@@](Cn6cncn6)(c6ccc(F)cc6F)C5)cc4)CC3)cc2)c1=O [Posaconazole]	3.5 h	4.5 h	5 h	5 h	5.5 h	4.5 h	5 h	8.5 h	7 h	7 h

Reference: patent US20240182945A1, “PRODUCTS FOR REGULATION OF EUKARYOTIC AND MICROBIAL CELLS GROWTH” (priority 2021, published 2024)
